ChEMBL document CHEMBL5260847, “Current scenario of indole derivatives with potential anti-drug-resistant cancer activity” (Eur J Med Chem, 2020)
pIC50: −log10 of the molar value.

How the values were obtained:
MCF7 [1] = assay: Cytotoxicity against human MCF7 cells assessed as reduction in cell viability measured after 48 hrs by SRB assay; assay type: functional, cell-based; details: MCF7, 48 h
SK-OV-3 = assay: Cytotoxicity against human SK-OV-3 cells assessed as reduction in cell viability measured after 48 hrs by SRB assay; assay type: functional, cell-based; details: SK-OV-3, 48 h
SW-620 = assay: Cytotoxicity against human SW620 cells assessed as reduction in cell viability measured after 48 hrs by SRB assay; assay type: functional, cell-based; details: SW-620, 48 h
DLD-1 = assay: Cytotoxicity against human DLD-1 cells assessed as reduction in cell viability measured after 48 hrs by SRB assay; assay type: functional, cell-based; details: DLD-1, 48 h
HeLa [2] = assay: Antiproliferative activity against human Hela cells assessed as reduction in cell viability measured after 48 hrs by MTT assay; assay type: functional, cell-based
A549 [3] = assay: Cytotoxicity activity against human A549 cells assessed as reduction in cell viability by SRB assay; assay type: functional, cell-based
HT-29 [4] = assay: Cytotoxicity activity against human HT-29 cells assessed as reduction in cell viability by SRB assay; assay type: functional, cell-based
PC-3 [5] = assay: Cytotoxicity activity against human PC-3 cells assessed as reduction in cell viability by MTT assay; assay type: functional, cell-based
A549 [6] = assay: Antiproliferative activity against multi-drug resistant human A549 cells assessed as reduction in cell viability; assay type: functional, cell-based
KB [7] = assay: Cytotoxicity against human KB cells assessed as reduction in cell viability measured after 48 hrs by MTT assay; assay type: functional, cell-based
CWR22R = assay: Cytotoxicity activity against human 22Rv1 assessed as reduction in cell viability by MTT assay; assay type: functional, cell-based
PC-3 [8] = assay: Antitumor activity in human PC-3 cells xenografted immunodeficient ICR mouse assessed as reduction in tumor growth at 25 mg/kg, ip administered for 2 weeks; assay type: functional; set-up: scale not given: the % may be the effect or the level left
PC-3 [9] = assay: Antitumor activity in human PC-3 cells xenografted immunodeficient ICR mouse assessed as reduction in tumor growth at 0.5 mg/kg, ip administered for 2 weeks in presence of vinblastine; assay type: functional; set-up: scale not given: the % may be the effect or the level left
HepG2 [10] = assay: Anticancer activity against human HepG2 cells assessed as inhibition of cell growth; assay type: functional, cell-based
KB [11] = assay: Antiproliferative activity against human KB cells assessed as reduction in cell growth incubated for 2 days by MTT assay; assay type: functional, cell-based; details: 48 h
K562/A02 = assay: Antiproliferative activity against human K562/A02 cells assessed as reduction in cell viability measured after 2 days by MTT assay; assay type: functional, cell-based; details: K562/A02, 48 h
HeLa [12] = assay: Anticancer activity against human HeLa cells assessed as inhibition of cell growth; assay type: functional, cell-based
H69AR [13] = assay: Antiproliferative activity against multidrug resistant human NCI-H69AR assessed as inhibition of cell proliferation by MTT assay; assay type: functional, cell-based
A549 [14] = assay: Antiproliferative activity against drug-sensitive human A549 cells assessed as reduction in cell viability by MTT assay; assay type: functional, cell-based
H69AR [15] = assay: Antiproliferative activity against multi-drug resistant human NCI-H69AR assessed as reduction in cell viability; assay type: functional, cell-based
[16] = Selectivity index, ratio of IC50 for antiproliferative activity against human MCF-10A cells to IC50 for antiproliferative activity against […] cells by MTT assay; assay type: toxicity, cell-based; details: MCF-10A cells and IEC-6 cells, read-out: Selectivity Index
ZR-75-1 = assay: Antiproliferative activity against human ZR-75-1 cells assessed as reduction in cell viability celltiter-Glo assay; assay type: functional, cell-based
HT-29 [17] = assay: Antiproliferative activity against human HT-29 cells assessed as reduction in cell viability celltiter-Glo assay; assay type: functional, cell-based
IEC-6 = assay: Antiproliferative activity against rat IEC-6 cells assessed as reduction in cell viability measured after 48 hrs by MTT assay; assay type: functional, cell-based; details: IEC-6, 48 h
MCF7 [18] = assay: Cytotoxicity activity against human MCF7 cells assessed as reduction in cell viability incubated for 72 hrs by MTT assay; assay type: functional, cell-based; details: MCF7, 72 h
HepG2 [19] = assay: Cytotoxicity activity against human HepG2 cells assessed as reduction in cell viability incubated for 72 hrs by MTT assay; assay type: functional, cell-based; details: HepG2, 72 h
A549 [20] = assay: Cytotoxicity activity against human A549 cells assessed as reduction in cell viability incubated for 72 hrs by MTT assay; assay type: functional, cell-based; details: A549, 72 h
HT-29 [21] = assay: Cytotoxicity activity against human HT-29 cells assessed as reduction in cell growth measured after 72 hrs by MTT assay; assay type: functional, cell-based; details: HT-29, 72 h

Compound: COc1ccc(C(=O)/C=C/c2nccc3c2[nH]c2ccccc23)cc1OC
- pIC50 (MCF7 [1]): 5.90
- pIC50 (SK-OV-3): 5.30
- pIC50 (SW-620): 5.00
- pIC50 (DLD-1): 5.60

Compound: O=Cc1c[nH]c2ccccc12 [3-FORMYLINDOLE]
- pIC50 (HeLa [2]): < 4.00

Compound: C/C=C1\CN(C)[C@H]2Cc3c([nH]c4ccccc34)[C@@H](c3ccc4[nH]c5c(c4c3OC)CCN3C[C@H]4CC[C@H]5[C@H]3[C@@H]4CC)C[C@H]1[C@@H]2C(=O)OC
- pIC50 (A549 [3]): 5.17
- pIC50 (HT-29 [4]): 6.03

Compound: C/C=C1\CN2CC[C@@]34c5c(ccc6c5OC5OC[C@@H]7[C@@H](C[C@H]8c9c(c%10ccccc%10n9C)C[C@@H]7N8C)[C@@H]5[C@@H]6C)N(C)[C@H]3[C@@H]2C[C@H]1[C@@H]4C(=O)OC (some centres not stated)
- pIC50 (PC-3 [5]): 5.14
- pIC50 (HT-29 [4]): 6.52

Compound: CCOC(=O)c1c(-c2ccc(F)cc2)oc2ccc(OCCCCCCN3C(=O)C(=O)c4cc(OC)ccc43)cc12
- pIC50 (A549 [6]): 4.11

Compound: CC[C@@]12CCCN3CCc4c(n(c5ccccc45)[C@H](c4ccc5c(c4)[C@@]46CCN7CCC[C@]8(CC[C@]4(C[C@@H]8C(=O)OC)N5)[C@H]76)C1)[C@H]32
- pIC50 (KB [7]): 5.11

Compound: C/C=C1/CN2[C@H]3C[C@@H]1C(CO)[C@@H]2Cc1c3n(C)c2cc(C[C@H]3[C@@H]4C[C@H]5c6c(c7ccccc7n6C)C[C@@H]([C@@H]4CO[C@]3(C)OC)N5C)c(OC)cc12 (some centres not stated)
- pIC50 (HT-29 [4]): 7.70

Compound: CC(=O)O[C@]1(C)CO[C@@]23CC[C@@]4(C)[C@@](O)(CC[C@H]5Cc6c([nH]c7cc(Cl)ccc67)[C@@]54C)C2=CC(=O)[C@@H]1O3
- pIC50 (PC-3 [5]): 5.31
- pIC50 (CWR22R): 5.42

Compound: CC1(C)C([C@@H](Cc2c[nH]c3ccccc23)C(=O)OCc2ccccc2)C(=O)[C@@H]2Cc3c([nH]c4ccccc34)CN21 (some centres not stated)
- Activity (PC-3 [8]): 40%
- Activity (PC-3 [9]): 50%

Compound: CO/N=C1\C(=O)N(Cc2cn(CCOCCN3C(=O)/C(=N/OC)c4ccccc43)nn2)c2ccccc21
- pIC50 (HepG2 [10]): 6.74

Compound: COc1cc([C@@H]2c3cc4c(cc3[C@@H](O[C@@H]3O[C@@H]5CO[C@@H](C)O[C@H]5[C@H](O)[C@H]3O)[C@H]3COC(=O)[C@H]23)OCO4)cc(OC)c1O [ETOPOSIDE]
- pIC50 (KB [11]): 5.99
- pIC50 (K562/A02): 4.98
- pIC50 (HeLa [12]): < 4.30
- pIC50 (HepG2 [10]): 5.16

Compound: O=C1Nc2ccc(Cl)cc2/C1=N/N=C/c1nc(-c2ccccc2)cs1
- pIC50 (H69AR [13]): 4.78
- pIC50 (A549 [14]): 4.99
- pIC50 (H69AR [15]): 4.80
- selectivity ratio [16]: 1.8
- pIC50 (ZR-75-1): 5.71
- pIC50 (HT-29 [17]): 5.14
- pIC50 (IEC-6): 5.05

Compound: CCC1CN(C)[C@H]2Cc3c([nH]c4ccccc34)[C@@H](n3c4c(c5c(OC)c([C@H]6C[C@H]7[C@H](CC)CN(C)[C@@H](Cc8c6[nH]c6ccccc86)[C@H]7C(=O)OC)ccc53)CCN3C[C@H]5CC[C@H]4[C@H]3[C@@H]5CC)C[C@@H]1[C@@H]2C(=O)OC (single isomer, unassigned)
- pIC50 (MCF7 [18]): 4.95
- pIC50 (HepG2 [19]): 4.90
- pIC50 (A549 [20]): 4.99
- pIC50 (HT-29 [21]): 4.94
